Experimental data taken from patent EP4796171A2 (Zealand Pharma A/S, priority 2017, dated 2018).
pEC50: −log10 of the molar value. Where “and” joins values, the source holds several entries; their conditions need not be identical. Equal values may be shown once.

Experiments:
[1] = biological target: T1, human GLP-2 receptors (Homo sapiens, UniProt O95838, D470N); assay: GLP-2 receptor efficacy assay (cAMP AlphaScreen); type: cell-based
T1 sequence (O95838 1-553 D470N): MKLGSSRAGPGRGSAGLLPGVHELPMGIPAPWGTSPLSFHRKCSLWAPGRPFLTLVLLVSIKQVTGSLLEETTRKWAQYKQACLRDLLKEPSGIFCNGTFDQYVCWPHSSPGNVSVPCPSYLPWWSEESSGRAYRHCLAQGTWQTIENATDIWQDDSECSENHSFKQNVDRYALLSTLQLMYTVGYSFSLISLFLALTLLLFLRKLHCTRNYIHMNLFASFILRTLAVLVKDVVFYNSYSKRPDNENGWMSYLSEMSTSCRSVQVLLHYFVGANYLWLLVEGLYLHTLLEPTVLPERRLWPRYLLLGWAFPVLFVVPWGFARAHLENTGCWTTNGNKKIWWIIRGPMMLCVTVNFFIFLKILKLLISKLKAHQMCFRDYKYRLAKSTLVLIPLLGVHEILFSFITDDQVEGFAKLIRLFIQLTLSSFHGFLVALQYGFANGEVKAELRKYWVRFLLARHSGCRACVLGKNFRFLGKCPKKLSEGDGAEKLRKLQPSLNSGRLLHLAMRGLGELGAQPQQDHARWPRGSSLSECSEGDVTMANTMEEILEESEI
Source text: The hGLP2-R was purchased from MRC-geneservice, Babraham, Cambridge as an Image clone: 5363415 (11924-117). For subcloning into a mammalian expression vector, primers for subcloning were obtained from DNA-Technology, Risskov, Denmark. The 5' and 3' primers used for the PCR reaction include terminal restriction sites for cloning and the context of the 5' primer is modified to a Kozak consensus without changing the sequence of the product encoded by the ORF. A standard PCR reaction was run using Image clone 5363415 (11924-117) as a template with the above mentioned primers and Polymerase Herculase II Fusion in a total vol. of 50µl. The generated PCR product was purified using GFX PCR and Gel band purification kit, digested with restriction enzymes and cloned into the mammalian expression vector using Rapid DNA Ligation Kit. Ligation reaction was transformed to XL10 Gold Ultracompetent cells and colonies were picked for DNA production using Endofree Plasmid maxi kit. Subsequent sequence analysis was conducted by MWG Eurofins, Germany.
HEK293 cells were transfected using the Lipofectamine PLUS transfection method. The day before transfection, HEK293 cells were seeded in two T75 flasks at a density of 2 x 10^6 cells / T75 flask in cell culturing medium without antibiotics. On the day of transfection, cells were washed with 1x DPBS and medium was replaced with Optimem to a volume of 5 mL / T75 flask before addition of Lipofectamine-plasmid complexes were added gently and drop wise to the cells in T75 flasks and replaced with growth medium after 3 hours and again to growth medium supplemented with 500µg/mL G418 after 24 hours. After 4 weeks in G418 selection, clones were picked and tested in a functional assay.
The cAMP AlphaScreen® assay from Perkin Elmer was used to quantitate the cAMP response to activation of the GLP2 receptor. […] Table 2: GLP-2R EC50 measurements

[2] = Phase 2 clinical trial, PK profile of ZP1848 and metabolites in SBS patients; type: in vivo, human; conditions: for Conc.: plasma
Protocol: A phase 2 clinical trial was conducted to i.a. determine the PK profile of ZP1848 and metabolites in human SBS patients.
The study was designed as a randomized, cross-over and double-blinded with three different doses of ZP1848 (10 mg, 1 mg, 0.1 mg) in 16 SBS patients.
The 18 SBS patients (16 patients completed the study) were randomized evenly and in a double-blinded fashion to each of the six cross-over dose level combinations: 10 mg/1 mg, 10 mg/0.1 mg, 1 mg/10 mg, 1 mg/0.1 mg, 0.1 mg/10 mg, 0.1 mg/1 mg of ZP1848. The patients were injected once daily (QD) subcutaneously with the above doses of ZP1848.
Blood samples for PK analysis were collected on several study visits throughout the study period: the study comprised a 1st baseline balance study (4 days), a 1st treatment period (21 days) including a 1st treatment balance study (last 4 days of 1st treatment period), followed by a wash-out period (at least 4 weeks); and a 2nd baseline balance study (4 days), a 2nd treatment period (21 days) including a 2nd treatment balance study (last 4 days of 2nd treatment period) and a follow-up period (at least 4 weeks).
PK sampling was performed at visit 11 (1st treatment, balance study) and visit 17 (second day of 2nd baseline study - after a wash out period), and again at visit 25 (2nd treatment balance study) and at visit 29 (last day of follow-up period).
At day visit 11 and visit 25 a full PK profile in steady state was investigated. PK samples were taken prior to injection of ZP1848, and at the following time points (+/- 10 minutes) after trial product administration: 1h, 2h, 4h, 6h, 8h, 10h, 12h and 24h. Each PK sample contained 2 mL of blood, resulting in a total of […] blood drawn for PK purposes. The plasma sample was immediately stored at -80°C after sampling.
Plasma samples were analyzed after immunoaffinity extraction followed by liquid chromatography mass spectrometry (LC-MS/MS). For each patient plasma concentrations were used for calculation of the pharmacokinetic parameters using the non-compartmental approach in Excel. Plasma terminal elimination half-life (T½) was determined as In(2)/ke where ke is the magnitude of the slope of the log linear regression of the log concentration versus time profile during the terminal phase.

pEC50 [1]: 10.28 | in vitro potency ([1]; in words, relative to ZP1848): comparable to ZP1848
Substance: H-HGEGTFSSELATILDALAARDFIAWLIATKITDK-OH [ZP2469]
plasma level ([2]; in words, relative to ZP1848 after administration of ZP1848): multiple times higher than that of ZP1848 | Conc. ([2]; Day 0 (visit 11 or 25, treatment balance study), ZP1848 SC once daily, individual subjects): 2.22 nM and 0.556 nM and 3.64 nM and 4.75 nM and 4.66 nM and 4.49 nM and 1.04 nM and 14.7 nM and 6.77 nM and 4.34 nM and 4.94 nM | Conc. ([2]; Day 28-56 (visit 17 or 29, after wash-out/follow-up), individual subjects): 0.394 nM and 0.0528 nM and 0.0564 nM and 0.288 nM and 0.236 nM and 0.195 nM and 0.133 nM and 0.209 nM and 0.46 nM and 0.116 nM and 0.112 nM | Half-life ([2]; terminal, from Day 0 and wash-out/follow-up concentrations, individual subjects): 5.2 days and 7.9 days and 8.7 days (2×) and 11 days (2×) and 7.2 days (2×) and 12 days and 9.5 days and 9.6 days
